Consider 2 compounds from ChEMBL document CHEMBL1155621, “Asitrocin, (2,4)-cis- and trans-asitrocinones: novel bioactive mono-tetrahydrofuran acetogenins from Asimina triloba seeds” (J Nat Prod, 2000).

One data set deals with A549. Nature of the data set: Cytotoxicity against human A549 cells after 7 days by MTT assay. It counts as functional. Conditions: A549, 168 h, read-out: ED50 (the source's name). For orientation: Tetrazolium dyes change colour on reduction, which living cells bring about.
A further data set concerns MCF7. Nature of the data set: Cytotoxicity against human MCF7 cells after 7 days by MTT assay. The format is functional. The settings on record: MCF7, 168 h, read-out: ED50 (the source's name).
A further data set deals with MIA PaCa-2. The experiment in a line: Cytotoxicity against human MiaPaCa2 cells after 7 days by MTT assay. It counts as functional. The settings on record: MIA PaCa-2, 168 h, read-out: ED50 (the source's name).
Another data set relates to A498. Nature of the data set: Cytotoxicity against human A498 cells after 7 days by MTT assay. The format is functional. Conditions: A498, 168 h, read-out: ED50 (the source's name).
For another data set, the system named is HT-29. The experiment in a line: Cytotoxicity against human HT29 cells after 7 days by MTT assay. It counts as functional. Conditions: HT-29, 168 h, read-out: ED50 (the source's name).
Data set [1] in a line: Toxicity in brine shrimp. It counts as organism-based. Conditions: artemia, in vivo.
In another data set the test system is PC-3. The experiment in a line: Cytotoxicity against human PC3 cells after 7 days by MTT assay. The format is functional. Conditions: PC-3, 168 h, read-out: ED50 (the source's name).

Values after ≈ are worked out from the molar mass of the structure shown.

With `CCCCCCCCCCCC[C@@H](O)[C@H]1CC[C@H]([C@@H](O)CC[C@H](O)CCCCCCC[C@@H](O)CC2=C[C@H](C)OC2=O)O1` [ASITROCIN], the EC50 in the data set on A549 turned out to be 118 ng/mL (≈ 198 nM); in the data set on MCF7, 3280 ng/mL (≈ 5500 nM); with MIA PaCa-2, 0.0148 ng/mL (≈ 0.0248 nM); with A498, 79.2 ng/mL (≈ 133 nM); with HT-29, 2.99 ng/mL (≈ 5.01 nM); in the data set with PC-3, 1.22 ng/mL (≈ 2.04 nM). The median lethal concentration (LC50) in data set [1] came out at 63 ng/mL (≈ 106 nM).
In the case of `COc1cccc2c1C(=O)c1c(O)c3c(c(O)c1C2=O)C[C@@](O)(C(=O)CO)C[C@@H]3O[C@H]1C[C@H](N)[C@H](O)[C@H](C)O1` [DOXORUBICIN], the EC50 with MIA PaCa-2 stood at 6.1 ng/mL (≈ 11.2 nM).

Broadly, the LC50 is the concentration lethal to half of the exposed cells or organisms. Read a low LC50 as greater toxicity.
